Target: T1, human CB2 (Homo sapiens, UniProt P34972)
T1 construct: expressed in transfected cells; host or cells: HEK-293T (transient transfection, membrane preparation)
Assay: CB2 receptor binding assay, block of [3H]-CP 55,940 binding
Details: membranes of HEK-293T cells transfected with human CB2 cDNA; 1.5 nM [3H]-CP 55,940
Method: Membrane preparation—HEK-293T cells were cultured according to ATCC (Manassas, Va.) guidelines and transfected with human CB2 cDNA (SEQ ID NO:1) (Genbank X74328), operably linked to the SV40 promoter, using Polyfect (Qiagen, Valencia, Calif.) or Fugene (Roche, Nutley, N.J.) according to manufacturer's instructions. 48 h after transfection cells were harvested in ice cold membrane buffer (20 mM HEPES, 6 mM MgCl2, 1 mM EDTA, pH 7.2) using a cell scraper. Cells were transferred to a nitrogen cavitation chamber and a pressure of […] was applied for 30 min. The pressure was released and the cell debris was collected and centrifuged at 1000 g at 4° C. for 10 min. The supernatant was collected and the spin was repeated until the supernatant was free of precipitate. Membranes were then pelleted by centrifugation at 12.000 g at 4° C. for 20 min. Membranes were resuspended in an appropriate amount of membrane buffer. The membrane concentration was determined using a BioRad (Hercules, Calif.) protein assay dye reagent according to manufacturer's instructions. Membranes were diluted to 1 mg/ml and aliquots snap-frozen in liquid nitrogen and store at −80° C.
Binding assay—0.5-10 ng of membranes were incubated in binding buffer (50 mM Tris, 0.5 mM EDTA, 0.1% BSA, pH 7.4) in the presence of 1.5 nM radioligand ([^3H]-CP 55,940 Perkin Elmer) and varying concentrations of ligands (total volume 100 μL in a 96 well plate). Membranes were filtered onto a 96 well GF/B filterplate (Packard Bioscience, Shelton, Conn.) and washed with […] wash buffer (25 mM HEPES, 1 mM CaCl2, 5 mM MgCl2, 0.25M NaCl) using a Filtermate 196 Harvester (Packard Instruments, Downers Grove, Ill.). The filter plates were dried under a heat lamp before addition of 50 μL of scintillation fluid to each well (Microscint 20, Packard, Shelton, Conn.). Plates were counted on a Topcount NXT (Packard, Shelton, Conn.).
Data Analysis—Graphs were plotted and KD values were determined by nonlinear regression analysis using Prism software (GraphPad version 4.0, San Diego, Calif., USA).

T1 sequence (P34972 whole entry): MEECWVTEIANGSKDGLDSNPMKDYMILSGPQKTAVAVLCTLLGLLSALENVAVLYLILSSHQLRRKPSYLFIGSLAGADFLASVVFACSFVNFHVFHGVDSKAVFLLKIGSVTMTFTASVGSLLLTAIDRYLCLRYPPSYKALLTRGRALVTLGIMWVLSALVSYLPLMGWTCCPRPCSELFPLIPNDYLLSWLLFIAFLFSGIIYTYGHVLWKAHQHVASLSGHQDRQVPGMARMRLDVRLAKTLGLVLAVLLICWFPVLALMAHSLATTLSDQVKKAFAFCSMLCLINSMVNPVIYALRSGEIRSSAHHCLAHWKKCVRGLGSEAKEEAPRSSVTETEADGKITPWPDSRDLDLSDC

| SMILES | pKi | Ki [nM] |
| --- | --- | --- |
| Cc1cccc2nc(-c3c(F)cccc3Cl)c(N(C)c3ccc4c(c3)OCCO4)n12 [CR-124] | 6.0 |  |
| COc1ccc2nc(-c3c(F)ccc(OCF)c3Cl)c(Nc3ccc4c(c3)OCCO4)n2c1 [CR-16] | 8.6 |  |
| Fc1cccc(Cl)c1-c1nc2cnccn2c1Nc1ccc2c(c1)OCCO2 [CR-103] | 6.4 |  |
| COc1cccc2nc(-c3c(Cl)ccc(OCF)c3F)c(Nc3ccc4c(c3)OCCO4)n12 [CR-10] | 9.2 |  |
| Fc1ccc(-c2nc3ccccn3c2Nc2ccc3c(c2)OCCO3)cn1 [CR-110] | 5.7 |  |
| Fc1cccnc1-c1nc2cnccn2c1Nc1ccc2c(c1)OCCO2 [CR-76] | 5.2 |  |
| COc1cc(O)ccc1-c1nc2cc(C)ccn2c1Nc1ccc2c(c1)OCCO2 [CR-107] | 6.4 |  |
| Cc1cccc2nc(-c3ncccc3F)c(Nc3ccc4c(c3)OCCO4)n12 [CR-57] | 7.2 |  |
| COc1cccc2nc(-c3c(F)ccc(OCF)c3Cl)c(Nc3ccc4c(c3)OCCO4)n12 [CR-11] | 9.1 |  |
| Cc1ccc2nc(-c3cccc(F)n3)c(Nc3ccc4c(c3)OCCO4)n2c1 [CR-59] | 7.1 |  |
| Oc1cc(Cl)c(-c2nc3cccc(OCCF)n3c2Nc2ccc3c(c2)OCCO3)c(Cl)c1 [CR-35] | 7.8 |  |
| COc1cccc2nc(-c3c(F)cc(OCF)cc3F)c(Nc3ccc4c(c3)OCCO4)n12 [CR-3] | 8.6 |  |
| COc1cccc2nc(-c3c(F)cc(O)cc3F)c(Nc3ccc4c(c3)OCCO4)n12 [CR-15] | 8.6 |  |
| Cc1cn2c(Nc3ccc4c(c3)OCCO4)c(-c3c(F)cccc3Cl)nc2cn1 [CR-80] | 6.7 |  |
| COc1cccc2nc(-c3c(F)ccc(OCCF)c3F)c(Nc3ccc4c(c3)OCCO4)n12 [CR-12] | 8.8 |  |
| COc1cccc(F)c1-c1nc2ncccn2c1Nc1ccc2c(c1)OCCO2 [CR-112] | 6.3 |  |
| Cc1ccn2c(Nc3ccc4c(c3)OCCO4)c(-c3ncccc3F)nc2c1 [CR-106] | 5.7 |  |
| Fc1cccc(Cl)c1-c1nc2ncccn2c1Nc1ccc2c(c1)OCCO2 [CR-46] | 7.4 |  |
| COc1cccc(OC)c1-c1nc2ncccn2c1Nc1ccc2c(c1)OCCO2 [CR-121] | 6.0 |  |
| Cc1cccn2c(Nc3ccc4c(c3)OCO4)c(-c3c(F)cccc3Cl)nc12 [CR-129] | 6.4 |  |
| COc1cc(O)ccc1-c1nc2ccccn2c1Nc1ccc2c(c1)OCCO2 [CR-79] | 6.7 |  |
| COc1cccc2nc(-c3c(F)ccc(OCC[18F])c3F)c(Nc3ccc4c(c3)OCCO4)n12 [CR-133] |  | 1.58 |
| COc1cccc(OC)c1-c1nc2cc(C)ccn2c1Nc1ccc2c(c1)OCCO2 [CR-126] | 5.9 |  |
| COc1cc(-c2nc3cc(C)ccn3c2Nc2ccc3c(c2)OCO3)cc(F)c1O [CR-130] | 6.1 |  |
| COc1cccc(OC)c1-c1nc2ccncn2c1Nc1ccc2c(c1)OCCO2 [CR-90] | 5.6 |  |
| Clc1cccc(Cl)c1-c1nc2cnccn2c1Nc1ccc2c(c1)OCCO2 [CR-94] | 6.6 |  |

| SMILES | pKi | Ki [nM] |
| --- | --- | --- |
| Fc1cccc(F)c1-c1nc2cnccn2c1Nc1ccc2c(c1)OCCO2 [CR-92] | 6.6 |  |
| COc1cc(-c2nc3cnccn3c2Nc2ccc3c(c2)OCCO3)cc(F)c1O [CR-91] | 6.6 |  |
| Cc1cccn2c(Nc3ccc4c(c3)OCCO4)c(-c3c(F)cccc3Cl)nc12 [CR-50] | 7.3 |  |
| COc1ccc2nc(-c3c(Cl)cncc3Cl)c(Nc3ccc4c(c3)OCCO4)n2c1 [CR-66] | 6.9 |  |
| Cc1ccn2c(Nc3ccc4c(c3)OCCO4)c(-c3ccccn3)nc2c1 [CR-119] | 5.9 |  |
| Cc1ccc2nc(-c3c(F)cccc3Cl)c(Nc3ccc4c(c3)OCCO4)n2c1 [CR-42] | 7.5 |  |
| Fc1ncccc1-c1nc2cnccn2c1Nc1ccc2c(c1)OCCO2 [CR-78] | 5.4 |  |
| COc1ccc2nc(-c3c(F)cccc3Cl)c(Nc3ccc4c(c3)OCCO4)n2c1 [CR-13] | 8.7 |  |
| Fc1cc(-c2nc3cnccn3c2Nc2ccc3c(c2)OCCO3)ccn1 [CR-83] | 5.5 |  |
| Fc1ccc(-c2nc3cnccn3c2Nc2ccc3c(c2)OCCO3)cn1 [CR-89] | 5.5 |  |
| COc1cccc2nc(-c3c(F)ccc(OCF)c3F)c(Nc3ccc4c(c3)OCCO4)n12 [CR-1] | 9.5 |  |
| COc1cccc2nc(-c3c(F)cncc3F)c(Nc3ccc4c(c3)OCCO4)n12 [CR-34] | 7.8 |  |
| Cc1ccn2c(Nc3ccc4c(c3)OCCO4)c(-c3c(Cl)cccc3Cl)nc2c1 [CR-68] | 6.9 |  |
| COc1cccc2nc(-c3c(F)cc(OCCF)cc3F)c(Nc3ccc4c(c3)OCCO4)n12 [CR-17] | 8.5 |  |
| COc1ccc2nc(-c3c(F)cccc3Cl)c(Nc3ccc4c(c3)OCCO4)n2c1OC [CR-67] | 6.9 |  |
| Cc1ccn2c(Nc3ccc4c(c3)OCCO4)c(-c3c(F)cccc3Cl)nc2c1 [CR-55] | 7.3 |  |
| COc1cccc2nc(-c3c(F)ccc(O)c3Cl)c(Nc3ccc4c(c3)OCCO4)n12 [CR-2] | 8.6 |  |
| COc1cccc2nc(-c3c(F)cccc3Cl)c(NC(=O)Nc3ccc4c(c3)OCCO4)n12 [CR-109] | 6.3 |  |
| OCc1ccn2c(Nc3ccc4c(c3)OCCO4)c(-c3c(F)cccc3Cl)nc2c1 [CR-102] | 6.4 |  |
| Cc1cccc2nc(-c3cccc(F)n3)c(Nc3ccc4c(c3)OCCO4)n12 [CR-84] | 6.7 |  |
| Cc1cccc(C)c1-c1nc2ncccn2c1Nc1ccc2c(c1)OCCO2 [CR-74] | 6.8 |  |
| COc1cccc(OC)c1-c1nc2ccc(C)cn2c1Nc1ccc2c(c1)OCCO2 [CR-100] | 6.5 |  |
| COc1cc(-c2nc3ccccn3c2Nc2ccc3c(c2)OCCO3)ccc1O [CR-71] | 6.8 |  |
| Cc1ccn2c(Nc3ccc4c(c3)OCCO4)c(-c3ccc(F)nc3)nc2c1 [CR-54] | 5.2 |  |
| COc1cc(O)ccc1-c1nc2ccc(C)cn2c1Nc1ccc2c(c1)OCCO2 [CR-85] | 6.7 |  |
| c1ccc(-c2nc3ncccn3c2Nc2ccc3c(c2)OCCO3)nc1 [CR-115] | 6.2 |  |

| SMILES | pKi | Ki [nM] |
| --- | --- | --- |
| Fc1ccc2nc(-c3c(F)cccc3Cl)c(Nc3ccc4c(c3)OCCO4)n2c1 [CR-40] | 7.5 |  |
| COc1cc(-c2nc3cccc(C)n3c2Nc2ccc3c(c2)OCCO3)ccc1O [CR-97] | 6.5 |  |
| COc1cccc2nc(-c3c(C)cc(OC[18F])cc3C)c(Nc3ccc4c(c3)OCCO4)n12 [CR-136] | 9.5 |  |
| Cc1ccc2nc(-c3c(Cl)cccc3Cl)c(Nc3ccc4c(c3)OCCO4)n2c1 [CR-39] | 7.6 |  |
| Cc1cncc2nc(-c3c(F)cccc3Cl)c(Nc3ccc4c(c3)OCCO4)n12 [CR-58] | 7.2 |  |
| FCCOc1ccc2nc(-c3c(F)cccc3Cl)c(Nc3ccc4c(c3)OCCO4)n2c1 [CR-41] | 7.5 |  |
| COc1ccnc2nc(-c3c(F)cc(OCCF)cc3F)c(Nc3ccc4c(c3)OCCO4)n12 [CR-61] | 7.0 |  |
| CCOc1cccc2nc(-c3c(F)cccc3Cl)c(Nc3ccc4c(c3)OCCO4)n12 [CR-24] | 8.1 |  |
| COc1cc(O)ccc1-c1nc2ccncn2c1Nc1ccc2c(c1)OCCO2 [CR-120] | 5.9 |  |
| Cc1cccc2nc(-c3c(F)cc(OCCF)cc3F)c(Nc3ccc4c(c3)OCCO4)n12 [CR-26] | 7.9 |  |
| COc1cccc2nc(-c3c(C)cc(OCC[18F])cc3C)c(Nc3ccc4c(c3)OCCO4)n12 [CR-132] |  | 5.01 |
| COc1cccc2nc(-c3c(F)ccc(OC[18F])c3Cl)c(Nc3ccc4c(c3)OCCO4)n12 [CR-134] |  | 1 |
| Cc1cccn2c(Nc3ccc4c(c3)OCCO4)c(-c3ccccn3)nc12 [CR-101] | 6.5 |  |
| FCCOc1cccc2nc(-c3c(F)cccc3Cl)c(Nc3ccc4c(c3)OCCO4)n12 [CR-37] | 7.7 |  |
| COc1cccc2nc(-c3c(C)cc(OCCF)cc3C)c(Nc3ccc4c(c3)OCCO4)n12 [CR-21] | 8.3 |  |
| COc1cc(-c2nc3cc(C)ccn3c2Nc2ccc3c(c2)OCCO3)ccc1O [CR-60] | 7.1 |  |
| Cc1cccc(C)c1-c1nc2cnccn2c1Nc1ccc2c(c1)OCCO2 [CR-82] | 6.7 |  |
| Cc1ccc2nc(-c3c(F)cccc3F)c(Nc3ccc4c(c3)OCCO4)n2c1 [CR-48] | 7.4 |  |
| COc1cccc2nc(-c3c(C)cc(OCCO)cc3C)c(Nc3ccc4c(c3)OCCO4)n12 [CR-5] | 8.3 |  |
| Cc1cccc2nc(-c3c(F)cc(C#N)cc3F)c(Nc3ccc4c(c3)OCCO4)n12 [CR-53] | 7.3 |  |
| COc1cc(-c2nc3ccncn3c2Nc2ccc3c(c2)OCCO3)ccc1O [CR-98] | 6.5 |  |
| CNc1cccc2nc(-c3c(F)cccc3Cl)c(Nc3ccc4c(c3)OCCO4)n12 [CR-43] | 7.5 |  |
| CC(C)Oc1cccc2nc(-c3c(F)cccc3Cl)c(Nc3ccc4c(c3)OCCO4)n12 [CR-29] | 7.9 |  |
| Cc1cccc2nc(-c3c(F)cc(O)cc3F)c(Nc3ccc4c(c3)OCCO4)n12 [CR-28] | 7.9 |  |
| COc1ccnc2nc(-c3c(F)cccc3Cl)c(Nc3ccc4c(c3)OCCO4)n12 [CR-104] | 6.4 |  |

Source: patent US20110206607A1, “IMIDAZOL (1,2-A)PYRIDINES AND RELATED COMPOUNDS WITH ACTIVITY AT CANNABINOID CB2 RECEPTORS” (priority 2007, published 2011)
